PubChem BioAssay AID330 (DTP/NCI, 2004)
Where “and” joins values, the source holds several entries; their conditions need not be identical. Identical values can stand only once. Toxic doses and inconclusive results are not listed. Rule for the calls: active = survival T/C of 150% or more; inactive = T/C below 125% in these data.

Test system: P388 leukemia ip, CD2F1 mice, survival T/C
Assay: NCI In Vivo Anticancer Drug Screen. Data for tumor model P388 Leukemia (intraperitoneal) in CD2F1 (CDF1) mice
Conditions: endpoint: median survival time, higher = longer survival
How it was run: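 Mice carrying the transplanted tumor received test compound or vehicle. Survival was recorded in each group, and the value is the treated-group measurement divided by that of the vehicle-treated control group.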

[1] = dose: 50.0 mg/kg/injection, schedule: Q01DX009 (ip), vehicle: saline with Tween-80
[2] = dose: 100.0 mg/kg/injection, schedule: Q01DX009 (ip), vehicle: saline with Tween-80
[3] = dose: 200.0 mg/kg/injection, schedule: Q01DX009 (ip), vehicle: saline with Tween-80
[4] = dose: 50.0 mg/kg/injection, schedule: Q01DX009 (ip), vehicle: Klucel (hydroxypropylcellulose) (HPC)
[5] = dose: 100.0 mg/kg/injection, schedule: Q01DX009 (ip), vehicle: Klucel (hydroxypropylcellulose) (HPC)
[6] = dose: 50.0 mg/kg/injection, schedule: Q01DX005 (ip), vehicle: saline with Tween-80
[7] = dose: 50.0 mg/kg/injection, schedule: Q01DX005 (ip), vehicle: Klucel (hydroxypropylcellulose) (HPC)
[8] = dose: 100.0 mg/kg/injection, schedule: Q01DX005 (ip), vehicle: Klucel (hydroxypropylcellulose) (HPC)
[9] = dose: 200.0 mg/kg/injection, schedule: Q01DX005 (ip), vehicle: Klucel (hydroxypropylcellulose) (HPC)
[10] = dose: 60.0 mg/kg/injection, schedule: Q01DX005 (ip), vehicle: Klucel (hydroxypropylcellulose) (HPC)
[11] = dose: 120.0 mg/kg/injection, schedule: Q01DX005 (ip), vehicle: Klucel (hydroxypropylcellulose) (HPC)
[12] = dose: 100.0 mg/kg/injection, schedule: Q01DX005 (ip), vehicle: saline with Tween-80
[13] = dose: 200.0 mg/kg/injection, schedule: Q01DX005 (ip), vehicle: saline with Tween-80
[14] = dose: 100.0 mg/kg/injection, schedule: Q04DX002 (ip), vehicle: Klucel (hydroxypropylcellulose) (HPC)
[15] = dose: 200.0 mg/kg/injection, schedule: Q04DX002 (ip), vehicle: Klucel (hydroxypropylcellulose) (HPC)
[16] = dose: 400.0 mg/kg/injection, schedule: Q04DX002 (ip), vehicle: Klucel (hydroxypropylcellulose) (HPC)
[17] = dose: 200.0 mg/kg/injection, schedule: Q01DX009 (ip), vehicle: Klucel (hydroxypropylcellulose) (HPC)

Measured: T/C

CN(C)CCSc1n[nH]c(=O)[nH]c1=O
inactive: dose: 25.0 mg/kg/injection, schedule: Q01DX005 (ip), vehicle: distilled water + alcohol 101 % of control | dose: 50.0 mg/kg/injection, schedule: Q01DX005 (ip), vehicle: distilled water + alcohol 95 % of control | dose: 100.0 mg/kg/injection, schedule: Q01DX005 (ip), vehicle: distilled water + alcohol 100 % of control | dose: 200.0 mg/kg/injection, schedule: Q01DX005 (ip), vehicle: distilled water + alcohol 96 % of control

CCCCCCC1(/C=C/c2ccc(Cl)c(Cl)c2)OCC(C)(C)CO1
inactive: [1] 100 % of control | [2] 89 % of control | [3] 90 % of control

O=C1OCc2c1cc1cc3c(cc1c2-c1ccc2c(c1)OCO2)OCO3
inactive: dose: 12.5 mg/kg/injection, schedule: Q01DX009 (ip), vehicle: Klucel (hydroxypropylcellulose) (HPC) 91 % of control | dose: 25.0 mg/kg/injection, schedule: Q01DX009 (ip), vehicle: Klucel (hydroxypropylcellulose) (HPC) 100 % of control | [4] 100 % of control | [5] 98 % of control

COc1ccc2[nH]c3c(c2c1)C(c1ccccc1)c1ccccc1-3 (stereo not drawn)
inactive: dose: 12.5 mg/kg/injection, schedule: Q01DX005 (ip), vehicle: saline with Tween-80 100 % of control | dose: 25.0 mg/kg/injection, schedule: Q01DX005 (ip), vehicle: saline with Tween-80 88 % of control | [6] 90 % of control

c1ccc(Nc2nnc(-c3ccc4c(c3)OCO4)o2)cc1
inactive: [7] 91 % of control | [8] 92 % of control | [9] 100 % of control

COC1(OC)OC(c2ccccc2)=C(C#N)C(c2ccc(Cl)cc2)C1(OC)OC (stereo not drawn)
inactive: [10] 96 % of control | [11] 94 % of control | dose: 240.0 mg/kg/injection, schedule: Q01DX005 (ip), vehicle: Klucel (hydroxypropylcellulose) (HPC) 88 % of control

Cc1ccc(Nc2ccc(Nc3ccc(C)cc3)c3c2C(=O)c2cccc(O)c2C3=O)cc1
inactive: [1] 101 % of control | [2] 95 % of control | [3] 97 % of control

C=CCOc1cc2c(cc1C/C=C/c1ccccc1)OCO2
inactive: [6] 102 % of control | [12] 103 % of control | [13] 109 % of control

CCN(CC)CCOc1c(Cl)cc(Cl)cc1Cl
inactive: [6] 93 % of control | [12] 111 % of control | [13] 111 % of control

Cn1c(=O)[nH]n(C2Cn3c(=O)n(C)c(=O)n3-c3ccccc32)c1=O (stereo not drawn)
inactive: [7] 115 % of control | [8] 99 % of control | [9] 96 % of control

COc1ccc2c(=O)cc(-c3ccc4ccccc4n3)oc2c1OC
inactive: [7] 98 % of control | [8] 95 % of control | [9] 90 % of control

COc1cc(/C=C2\CCC/C(=C\c3ccc(OCC4CO4)c(OC)c3)C2=O)ccc1OCC1CO1 (stereo not drawn)
inactive: [1] 101 % of control | [2] 95 % of control | [3] 94 % of control

N#Cc1c2ccccc2c(=O)n2ccccc12
inactive: [14] 94 % of control | [15] 88 % of control | [16] 94 % of control

CC(=O)OCN(C)N=Nc1ccc(C(C)=O)cc1
inactive: [10] 106 % of control and 114 % of control and 118 % of control | [11] 100 % of control and 109 % of control and 124 % of control | dose: 480.0 mg/kg/injection, schedule: Q01DX005 (ip), vehicle: Klucel (hydroxypropylcellulose) (HPC) 108 % of control

O=C1c2ccccc2C(=O)c2c1ccc1c2CCC1
inactive: dose: 7.5 mg/kg/injection, schedule: Q01DX009 (ip), vehicle: saline with Tween-80 97 % of control | dose: 15.0 mg/kg/injection, schedule: Q01DX009 (ip), vehicle: saline with Tween-80 95 % of control | dose: 30.0 mg/kg/injection, schedule: Q01DX009 (ip), vehicle: saline with Tween-80 105 % of control

O=C1CCNC(=O)N1OS(=O)(=O)c1ccccc1
inactive: [4] 86 % of control

CN(C)Cc1cccc[c]1[Sn]([CH3])([Br])[c]1ccccc1CN(C)C
inactive: dose: 3.12 mg/kg/injection, schedule: Q01DX009 (ip), vehicle: saline 101 % of control and 113 % of control and 88 % of control

COC(=O)C(CSC1CCCCC1=O)NC(C)=O (stereo not drawn)
inactive: dose: 25.0 mg/kg/injection, schedule: Q01DX005 (ip), vehicle: Klucel (hydroxypropylcellulose) (HPC) 93 % of control | [7] 95 % of control | [8] 101 % of control

CCCCN(CC)CC(CC)Nc1cc(OC)cc2cccnc12 (stereo not drawn)
inactive: [6] 102 % of control | [12] 95 % of control | [13] 101 % of control

O=C1/C(=C/c2ccc(Br)cc2)CCc2ccccc21
inactive: [4] 105 % of control | [5] 111 % of control | [17] 105 % of control

[O-]c1nn(C2OC(CO)C(O)C2O)c2cccc[n+]12 (stereo not drawn)
inactive: dose: 100.0 mg/kg/injection, schedule: Q01DX001 (ip), vehicle: saline 110 % of control | dose: 200.0 mg/kg/injection, schedule: Q01DX001 (ip), vehicle: saline 108 % of control | dose: 400.0 mg/kg/injection, schedule: Q01DX001 (ip), vehicle: saline 95 % of control

CC(=O)Nc1ccc(N=Nc2c(S(=O)(=O)O)cc3cc(NC(C)=O)ccc3c2O)cc1
inactive: dose: 50.0 mg/kg/injection, schedule: Q01DX005 (ip), vehicle: saline 98 % of control and 100 % of control | dose: 100.0 mg/kg/injection, schedule: Q01DX005 (ip), vehicle: saline 100 % of control and 103 % of control | dose: 200.0 mg/kg/injection, schedule: Q01DX005 (ip), vehicle: saline 99 % of control

COc1ccc(/C(C)=N/NS(=O)(=O)c2ccc(C)cc2)cc1OC
inactive: dose: 25.0 mg/kg/injection, schedule: Q01DX009 (ip), vehicle: other 97 % of control | dose: 50.0 mg/kg/injection, schedule: Q01DX009 (ip), vehicle: other 96 % of control | dose: 100.0 mg/kg/injection, schedule: Q01DX009 (ip), vehicle: other 93 % of control | dose: 200.0 mg/kg/injection, schedule: Q01DX009 (ip), vehicle: other 97 % of control | dose: 400.0 mg/kg/injection, schedule: Q01DX009 (ip), vehicle: other 88 % of control

COc1cccc(NC2=NCCS2)c1
inactive: [6] 102 % of control | [12] 105 % of control | [13] 98 % of control

C=CCOCC1CN2CCOC2(C)O1 (stereo not drawn)
inactive: dose: 200.0 mg/kg/injection, schedule: Q01DX009 (ip), vehicle: water 105 % of control | dose: 400.0 mg/kg/injection, schedule: Q01DX009 (ip), vehicle: water 97 % of control | dose: 800.0 mg/kg/injection, schedule: Q01DX009 (ip), vehicle: water 105 % of control | dose: 1600.0 mg/kg/injection, schedule: Q01DX009 (ip), vehicle: water 102 % of control

CC1(C)OC2OC(COC(=O)c3ccccc3)C(N3OC4C=CC3CC4)C2O1 (stereo not drawn)
inactive: [14] 103 % of control | [15] 103 % of control | [16] 102 % of control

Nc1nc(-c2ccccc2)c(CCCNc2ccc(C(=O)NC(CCC(=O)O)C(=O)O)cc2)c(=O)[nH]1 (stereo not drawn)
inactive: [7] 102 % of control | [8] 102 % of control | [9] 106 % of control

O=C(c1ccccc1)c1cccs1
inactive: dose: 22.0 mg/kg/injection, schedule: Q01DX009 (ip), vehicle: saline with Tween-80 113 % of control | dose: 44.0 mg/kg/injection, schedule: Q01DX009 (ip), vehicle: saline with Tween-80 104 % of control | dose: 88.0 mg/kg/injection, schedule: Q01DX009 (ip), vehicle: saline with Tween-80 109 % of control

c1ccc(OP(Oc2ccccc2)(c2ccccc2)(c2ccccc2)c2ccccc2)cc1
inactive: [4] 97 % of control | [5] 99 % of control | [17] 111 % of control
